Results from EP4733298A1, “NOVEL TRPM4 ANTAGONISTS AND MEDICAL USE THEREOF” (Universitätsklinikum Hamburg-Eppendorf, priority 2024, dated 2026).

How the values were obtained:
[1] = target: T1, 5-HT2A (h) (agonist radioligand) (Homo sapiens, UniProt P28223); assay: In vitro pharmacology (SafetyScreen44), 5-HT2A binding; conditions: Ref. CMP (±)DOI, read-out: Inhibiton (%) 5-HT2A (h) (agonist radioligand)
T1 construct: purchased Eurofins Cerep Safetyscreen 44 Panel; Study ID FR095-0009609
Method: (§1) In vitro assays were used to test absorption, distribution, metabolism, excretion and toxicity (ADMET) parameters for selected compounds. Compound absorption was assessed using parallel artificial membrane permeability (PAMPA) and Caco-2 cell permeability assays (cut-off criterion > 2 × 10^-6 cm s^-1). Compound toxicity was evaluated by measuring inhibition of cytochrome P450 enzymes (CYP), the potassium channel hERG, and TRPM5, with all parameters meeting acceptable criteria (Table 1). To assess potential off-target activity of the compounds that could be relevant for safety in humans, in vitro pharmacology tests using the commercially available and widely used SafetyScreen44 interaction panel^60 covering eight protein families were conducted (Tables 2 and 3). The lack of off-target activities on hERG channels and in vitro pharmacology profiles are promising and consistent with absence of toxicity during in vivo pharmacokinetic assessments, see below. Table 1. In vitro ADMET profile of Series 1 compounds.
(§2) Table 2. In vitro pharmacology profile of representative compounds disclosed herein, i.e. of benzoxazoles according to Formula (I) (CMP 343 and 354). Only inhibitions above 50% relative to the reference compound are shown and considered active. […]

[2] = target: T2, 5-HT2B (h) (agonist radioligand) (Homo sapiens, UniProt P41595); assay: In vitro pharmacology (SafetyScreen44), 5-HT2B binding; conditions: Ref. CMP (±)DOI, read-out: Inhibiton (%) 5-HT2B (h) (agonist radioligand)
T2 construct: purchased Eurofins Cerep Safetyscreen 44 Panel; Study ID FR095-0009609
Method: as §1, §2

[3] = target: T3, dopamine transporter (h) (antagonist radioligand) (Homo sapiens, UniProt Q01959); assay: In vitro pharmacology (SafetyScreen44), dopamine transporter binding; conditions: Ref. CMP BTCP, read-out: Inhibiton (%) dopamine transporter (h) (antagonist radioligand)
T3 construct: purchased Eurofins Cerep Safetyscreen 44 Panel; Study ID FR095-0009609
Method: as §1, §2

[4] = target: T4, norepinephrine transporter (h) (antagonist radioligand) (Homo sapiens, UniProt P23975); assay: In vitro pharmacology (SafetyScreen44), norepinephrine transporter binding; conditions: Ref. CMP protriptyline, read-out: Inhibiton (%) norepinephrine transporter (h) (antagonist radioligand)
T4 construct: purchased Eurofins Cerep Safetyscreen 44 Panel; Study ID FR095-0009609
Method: as §1, §2

human TRPM4 = target: T5, human TRPM4 (Homo sapiens, UniProt Q8TD43); assay: QPatch assay (automated patch clamp), TRPM4; assay type: cell-based; conditions: human TRPM4-expressing HEK293 cells, read-out: TRP M4 IC50
T5 construct: host or cells: HEK293, stably expressing
Method: QPatchHTX, an automated electrophysiology platform, was used in single hole mode. One day before use human TRPM4- or TRPM5-expressing HEK293 cells were seeded in a T75 flask at a density of 53k cells per cm^2 and at passages < 23. […] The extracellular solution was (in mM): CaCl2 (7), MgCl2 (2), KCl (5), HEPES (10), NaCl (70), NMDG (70); pH 7.4 with NaOH. The intracellular solution was (in mM): HEPES (10), NMDG (100), NaCl (50), EGTA (20), MgCl2 (1), CaCl2 (21); pH 7.2 with HCl. […] This protocol was repeated every 7 seconds. […] FFA was used as reference compound and applied cumulatively with each concentration incubating at a minimum of 20 voltage protocol runs (140 seconds) with the current after addition of FFA being calculated as full block. […] Each compound was measured at least 3 time independently.

COX1 (h) = target: T6, COX1 (h) (Homo sapiens, UniProt P23219); assay: In vitro pharmacology (SafetyScreen44), COX1; assay type: biochemical; conditions: Ref. CMP Diclofenac, read-out: Inhibiton (%) COX1 (h)
T6 construct: purchased Eurofins Cerep Safetyscreen 44 Panel; Study ID FR095-0009609
Method: as §1, §2

[5] = target: T7, kappa (h) (KOP) (agonist radioligand) (Homo sapiens, UniProt P41145); assay: In vitro pharmacology (SafetyScreen44), kappa opioid receptor binding; conditions: Ref. CMP U50488, read-out: Inhibiton (%) kappa (h) (KOP) (agonist radioligand)
T7 construct: purchased Eurofins Cerep Safetyscreen 44 Panel; Study ID FR095-0009609
Method: as §1, §2

T1 sequence (P28223 whole entry): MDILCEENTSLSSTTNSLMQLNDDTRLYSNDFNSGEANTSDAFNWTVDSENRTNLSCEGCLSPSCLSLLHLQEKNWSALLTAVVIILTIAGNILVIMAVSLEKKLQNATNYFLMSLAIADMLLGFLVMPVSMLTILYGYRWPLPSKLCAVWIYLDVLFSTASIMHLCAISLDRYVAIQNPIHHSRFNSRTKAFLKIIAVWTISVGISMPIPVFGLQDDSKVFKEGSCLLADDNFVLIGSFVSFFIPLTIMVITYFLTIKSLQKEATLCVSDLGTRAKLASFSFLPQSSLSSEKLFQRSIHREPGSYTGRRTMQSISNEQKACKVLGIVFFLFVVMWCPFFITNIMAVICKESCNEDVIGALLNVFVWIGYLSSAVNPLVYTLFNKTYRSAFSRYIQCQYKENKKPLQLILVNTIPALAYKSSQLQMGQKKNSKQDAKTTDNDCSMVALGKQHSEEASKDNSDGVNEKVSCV
T3 sequence (Q01959 whole entry): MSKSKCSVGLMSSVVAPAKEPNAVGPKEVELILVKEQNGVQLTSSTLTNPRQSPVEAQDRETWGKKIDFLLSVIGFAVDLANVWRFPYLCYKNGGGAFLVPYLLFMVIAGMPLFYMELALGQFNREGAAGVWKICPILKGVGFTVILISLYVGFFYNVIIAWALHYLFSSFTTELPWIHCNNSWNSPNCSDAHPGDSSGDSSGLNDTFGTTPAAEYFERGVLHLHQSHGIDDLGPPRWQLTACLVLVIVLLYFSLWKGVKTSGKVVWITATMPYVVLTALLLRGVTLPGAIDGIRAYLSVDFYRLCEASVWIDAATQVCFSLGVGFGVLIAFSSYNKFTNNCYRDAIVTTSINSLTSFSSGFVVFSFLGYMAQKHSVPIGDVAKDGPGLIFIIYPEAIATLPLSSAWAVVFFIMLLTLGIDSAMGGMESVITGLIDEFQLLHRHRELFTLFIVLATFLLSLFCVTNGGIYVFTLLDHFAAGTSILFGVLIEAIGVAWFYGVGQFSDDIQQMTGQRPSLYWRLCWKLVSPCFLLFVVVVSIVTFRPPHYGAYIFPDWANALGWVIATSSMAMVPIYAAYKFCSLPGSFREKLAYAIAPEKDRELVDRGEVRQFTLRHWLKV
T4 sequence (P23975 whole entry): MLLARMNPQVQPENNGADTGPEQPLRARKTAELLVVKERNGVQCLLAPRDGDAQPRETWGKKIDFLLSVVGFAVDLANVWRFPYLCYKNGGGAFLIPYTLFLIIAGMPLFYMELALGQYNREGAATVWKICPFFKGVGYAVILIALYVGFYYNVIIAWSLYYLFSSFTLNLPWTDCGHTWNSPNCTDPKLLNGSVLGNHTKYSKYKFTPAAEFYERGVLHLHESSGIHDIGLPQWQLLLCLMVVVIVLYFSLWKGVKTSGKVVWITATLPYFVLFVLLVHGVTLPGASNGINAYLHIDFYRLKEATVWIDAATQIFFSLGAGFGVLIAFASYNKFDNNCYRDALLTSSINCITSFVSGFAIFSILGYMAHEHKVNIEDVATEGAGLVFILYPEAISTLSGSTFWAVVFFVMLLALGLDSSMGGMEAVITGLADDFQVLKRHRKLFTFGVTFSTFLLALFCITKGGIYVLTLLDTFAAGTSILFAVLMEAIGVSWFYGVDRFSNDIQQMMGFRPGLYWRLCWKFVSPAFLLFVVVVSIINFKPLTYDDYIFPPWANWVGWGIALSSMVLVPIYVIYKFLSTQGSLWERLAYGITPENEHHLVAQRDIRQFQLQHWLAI
T2 sequence (P41595 whole entry): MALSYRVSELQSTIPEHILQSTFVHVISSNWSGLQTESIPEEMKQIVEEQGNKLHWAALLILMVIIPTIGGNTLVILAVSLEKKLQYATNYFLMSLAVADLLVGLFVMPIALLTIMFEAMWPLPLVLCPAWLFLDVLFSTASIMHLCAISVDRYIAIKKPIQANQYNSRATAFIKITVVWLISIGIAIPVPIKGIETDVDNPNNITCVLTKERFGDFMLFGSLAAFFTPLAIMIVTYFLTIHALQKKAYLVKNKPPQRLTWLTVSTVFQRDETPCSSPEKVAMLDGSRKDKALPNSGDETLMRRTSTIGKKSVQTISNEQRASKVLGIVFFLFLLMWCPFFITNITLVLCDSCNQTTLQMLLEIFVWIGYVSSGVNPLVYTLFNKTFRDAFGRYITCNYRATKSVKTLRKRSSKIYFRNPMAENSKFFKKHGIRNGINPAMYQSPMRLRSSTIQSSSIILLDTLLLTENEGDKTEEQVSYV
T6 sequence (P23219 24-599): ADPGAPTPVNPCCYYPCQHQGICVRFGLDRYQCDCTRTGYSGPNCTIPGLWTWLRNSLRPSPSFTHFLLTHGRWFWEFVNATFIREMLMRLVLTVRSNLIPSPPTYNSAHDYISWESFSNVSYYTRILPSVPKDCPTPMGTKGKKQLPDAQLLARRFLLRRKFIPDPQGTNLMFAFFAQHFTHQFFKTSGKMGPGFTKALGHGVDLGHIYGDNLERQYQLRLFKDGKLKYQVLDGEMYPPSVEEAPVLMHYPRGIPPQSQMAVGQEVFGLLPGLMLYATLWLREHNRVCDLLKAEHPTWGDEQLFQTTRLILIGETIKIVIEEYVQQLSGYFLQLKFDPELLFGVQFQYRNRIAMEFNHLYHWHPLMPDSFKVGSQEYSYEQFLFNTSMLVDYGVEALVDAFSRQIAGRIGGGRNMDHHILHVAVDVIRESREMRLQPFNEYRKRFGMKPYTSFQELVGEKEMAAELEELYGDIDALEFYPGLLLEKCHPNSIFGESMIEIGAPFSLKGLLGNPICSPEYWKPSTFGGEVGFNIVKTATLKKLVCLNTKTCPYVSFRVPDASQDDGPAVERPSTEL
T7 sequence (P41145 whole entry): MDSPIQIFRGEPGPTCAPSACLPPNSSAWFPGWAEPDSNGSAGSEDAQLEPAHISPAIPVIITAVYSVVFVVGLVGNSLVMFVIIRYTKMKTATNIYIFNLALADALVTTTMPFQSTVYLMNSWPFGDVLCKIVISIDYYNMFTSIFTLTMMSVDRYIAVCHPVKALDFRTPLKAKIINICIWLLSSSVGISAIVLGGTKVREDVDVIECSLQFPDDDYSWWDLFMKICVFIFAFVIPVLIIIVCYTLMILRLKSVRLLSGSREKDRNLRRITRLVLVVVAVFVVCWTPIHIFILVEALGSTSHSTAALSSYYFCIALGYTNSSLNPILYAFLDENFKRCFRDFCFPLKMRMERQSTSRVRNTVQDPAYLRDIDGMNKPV
T5 sequence (Q8TD43 whole entry): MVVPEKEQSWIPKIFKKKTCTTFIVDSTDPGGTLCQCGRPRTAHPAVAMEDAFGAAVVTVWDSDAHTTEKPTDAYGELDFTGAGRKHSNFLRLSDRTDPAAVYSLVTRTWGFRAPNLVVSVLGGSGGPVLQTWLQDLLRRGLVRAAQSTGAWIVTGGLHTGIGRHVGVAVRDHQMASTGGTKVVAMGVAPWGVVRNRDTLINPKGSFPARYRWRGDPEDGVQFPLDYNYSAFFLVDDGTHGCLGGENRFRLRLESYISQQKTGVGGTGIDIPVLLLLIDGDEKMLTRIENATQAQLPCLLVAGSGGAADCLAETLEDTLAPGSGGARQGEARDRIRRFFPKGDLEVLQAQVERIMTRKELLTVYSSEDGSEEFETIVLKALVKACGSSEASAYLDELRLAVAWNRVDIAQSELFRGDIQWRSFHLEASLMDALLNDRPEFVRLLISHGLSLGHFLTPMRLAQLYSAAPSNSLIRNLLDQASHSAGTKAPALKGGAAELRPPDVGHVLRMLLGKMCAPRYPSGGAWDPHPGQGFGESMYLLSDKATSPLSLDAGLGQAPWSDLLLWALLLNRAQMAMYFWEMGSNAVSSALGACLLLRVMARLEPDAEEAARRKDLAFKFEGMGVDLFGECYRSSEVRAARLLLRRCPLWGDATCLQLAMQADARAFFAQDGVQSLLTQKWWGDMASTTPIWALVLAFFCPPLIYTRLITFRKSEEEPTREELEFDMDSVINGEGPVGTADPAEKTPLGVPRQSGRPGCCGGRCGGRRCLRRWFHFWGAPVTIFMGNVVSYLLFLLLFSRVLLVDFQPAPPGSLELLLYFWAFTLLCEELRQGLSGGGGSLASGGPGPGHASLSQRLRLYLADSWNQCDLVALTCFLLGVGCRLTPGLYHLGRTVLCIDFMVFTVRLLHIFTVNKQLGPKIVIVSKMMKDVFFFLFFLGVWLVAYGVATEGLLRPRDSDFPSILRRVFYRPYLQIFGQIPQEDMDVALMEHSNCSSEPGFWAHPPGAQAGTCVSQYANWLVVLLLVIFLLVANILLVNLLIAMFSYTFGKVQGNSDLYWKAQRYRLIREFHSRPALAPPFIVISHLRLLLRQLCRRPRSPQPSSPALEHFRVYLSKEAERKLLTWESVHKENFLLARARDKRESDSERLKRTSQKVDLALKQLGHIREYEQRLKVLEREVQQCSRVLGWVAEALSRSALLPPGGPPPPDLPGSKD

Compound | inhibition at 5 µM [1] | inhibition at 5 µM [2] | inhibition at 5 µM [3] | inhibition at 5 µM [4] | IC50 (human TRPM4) | inhibition at 5 µM (COX1 (h)) | inhibition at 5 µM [5]
Cc1ccc(-c2ccccc2NCc2nc3ccccc3o2)s1 [CMP354] | 73% | 65% | 64% | 74% |  |  | 
Cc1noc(-c2csc(S(=O)(=O)Nc3ccccc3C(F)(F)F)c2)c1C [CMP157] |  |  |  |  | 630 nM |  | 
Fc1cccc(-c2ccccc2NCc2nc3ccccc3o2)c1 [CMP343] | 51% | 70% | 70% | 78% |  | 56% | 63%
